pIC50: −log10 of the molar value. Like-named read-outs stand apart in the source and are kept apart here. Each block holds one compound with its values, some of them ahead of it.
Tests used:
tubulin = experiment: photometric measurement of polymerisation of tubulin and depolymerisation of microtubules (350 nm); type: biochemical, bovine; conditions: photometry, compared with taxol/control; for effect on polymerisation of tubulin: 37° C., tubulin 2 mg protein/ml; for stabilisation of microtubules (effect on depolymerisation): depolymerisation initiated by reducing temperature to 15° C.
Procedure: Bovine brains (each 330 g) are removed from freshly opened cows' heads and are transported in ice-cooled PM4-M buffer. Each brain is freed of the meninges and also of any thrombi and is homogenised with sufficient PM4M buffer in a cooling chamber. The homogenised material from 2 bovine brains is made up to a total volume of 1.0 liter with a total of 500 ml of buffer and is subjected to a first centrifugation (GSA rotor, 15 minutes, 4° C., 6500 g). The supernatant is freed of the sebaceous skin on the surface, filtered over 4 layers of thin muslin, transferred into counter-balanced centrifuge tubes (420 ml) and centrifuged again (Ti 45 rotor, 96000 g, 75 minutes, 4° C.). The supernatant is removed by pipette through the pellet and filtered over 6 layers of thin muslin, and a 50 mM GTP solution in 0.001M bicarbonate/PBS is added to obtain a final concentration of 1 mM. A first polymerisation is carried out in counter-balanced centrifuge tubes for 45 minutes in a water bath warmed to 37° C. The microtubules that have formed are removed by centrifugation (Ti 45 rotor, 27° C., 96000 g, 60 minutes), the supernatant is carefully removed by pipette and the very soft, opalescent pellet is carefully separated from the wall with a spatula. 40 ml of cold PM buffer are then added to the pellet, followed by homogenisation using a small glass mortar and incubation overnight (from 12 to 16 hours) on ice in counter-balanced centrifuge tubes in a cooling chamber. The depolymerisation product is removed by centrifugation in the Ti 60 rotor (4° C.; 96000 g, 60 minutes) and the supernatant is diluted with PM8-M buffer to 1:1, incubated in counter-balanced centrifuge tubes at 37° C. for 45 minutes and centrifuged again (Ti 45 rotor, 27° C., 96000 g, 60 minutes). The supernatant is carefully removed by pipette and the very soft opalescent pellet is taken up in 20 ml of cold PM buffer, homogenised carefully using a small glass mortar and incubated on ice for 30 minutes. The renewed centrifugation (Ti 60 rotor, 4° C., 96000 g, 60 minutes) gives tubulin, the protein content of which is determined according to Pearce or according to a photometric measurement at 280 nm. In the protein determination, dilutions of isolated material to PM buffer of 1:10, 1:20 and 1:40 are used. The PM buffer has own extinction and is deducted as a zero value from the determined protein content. The isolated material is diluted with PM buffer to the intended protein concentration (2 mg/ml).
The measurement of the polymerisation of tubulin and the depolymerisation of microtubules is carried out by photometry. Before the measurement, the tubulin prepared in accordance with Application Example 1 is thawed and degassed for 15 minutes. The photometer is set to a wavelength of 350 nm. 3 μl of solvent/sample, 6 μl of GTP ([…] final.) and 291 μl of tubulin (2 mg protein/ml) are pipetted into the dry and cleaned dishes (10 mm). The sample is carefully stirred (without causing air bubbles), immediately placed in dish carriages and the measuring operation is started at 37° C. Once the polymerisation maximum has been reached (solvent control and taxol 1E-5 mol/l after 20 minutes), the depolymerisation is initiated by reducing the temperature to 15° C. The measuring operation is stopped at the end of the depolymerisation and the course of the change in absorption is represented in graph form as a function of time and temperature (see FIG. 1).

[1] = system: MDA MB 435 mammary carcinoma cells; experiment: anti-proliferative effect on tumour cell line, MTT method; type: cell-based; conditions: for pIC50: Homo sapiens; for inhibiting (anti-proliferative) activity compared with taxol, in words: MDA MB 435 cells, MTT, comparison with taxol
Procedure: The addition of the substance in several concentrations is carried out on day 1. The anti-proliferative effect is determined on day 3 using the MTT method. The IC50 values are determined therefrom.

[2] = MDA MB 435 mammary carcinoma cells, 5000 cells/well, substance added day 1, determined day 3, MTT, read-out: MDA-MB 435 cells IC50

SMILES: COC(=O)N[C@@H](c1ccncc1)[C@@H](O)C(=O)O[C@H]1C[C@@]2(O)[C@@H](O)[C@@H]3[C@]4(OC(C)=O)CO[C@@H]4C[C@H](O)[C@@]3(C)C(=O)[C@H](OC(C)=O)C(=C1C)C2(C)C [Compound 3, 3'-desphenyl-3'-(4-pyridyl)-2,3'-N-bisdebenzoyl-3'-N-methoxycarbonyl-taxol]
effect on polymerisation of tubulin (tubulin): much more pronounced acceleration of the polymerisation of tubulin
stabilisation of microtubules (effect on depolymerisation) (tubulin): stabilises the microtubules that have formed better than taxol
pIC50 [1, 2]: 5.10

SMILES: COC(=O)N[C@@H](c1ccncc1)[C@@H](O)C(=O)O[C@H]1C[C@@]2(O)[C@@H](OC(=O)c3ccccc3)[C@@H]3[C@]4(OC(C)=O)CO[C@@H]4C[C@H](O)[C@@]3(C)C(=O)[C@H](O)C(=C1C)C2(C)C [Compound 4, 3'-Desphenyl-3'-(4-pyridyl)-3'-N-debenzoyl-3'-N-methoxycarbonyl-10-desacetyl-taxol]
effect on polymerisation of tubulin (tubulin): does not differ from taxol in respect of the polymerisation behaviour of tubulin
stabilisation of microtubules (effect on depolymerisation) (tubulin): stabilise the microtubules that have formed substantially better than taxol
pIC50 [1, 2]: 7.22

SMILES: CC(=O)O[C@H]1C(=O)[C@@]2(C)[C@H]([C@H](OC(=O)c3ccccc3)[C@]3(O)C[C@H](OC(=O)[C@H](O)[C@@H](NC(=O)c4ccccc4)c4ccccc4)C(C)=C1C3(C)C)[C@]1(OC(C)=O)CO[C@@H]1C[C@@H]2O [Taxol, reference compound]
effect on polymerisation of tubulin (tubulin): speeds up the polymerisation of tubulin in comparison with the control
stabilisation of microtubules (effect on depolymerisation) (tubulin): inhibits depolymerisation
pIC50 ([1]; MDA-MB-435, read-out: MDA-MB 435 cells IC50): 8.52

Now from value to compound, other results behind:

pIC50 [1, 2]: 8.70
SMILES: COC(=O)N[C@@H](c1ccncc1)[C@@H](O)C(=O)O[C@H]1C[C@@]2(O)[C@@H](OC(=O)c3ccccc3)[C@@H]3[C@]4(OC(C)=O)CO[C@@H]4C[C@H](O)[C@@]3(C)C(=O)[C@H](OC(C)=O)C(=C1C)C2(C)C [Compound 1, 3'-desphenyl-3'-(4-pyridyl)-3'-N-debenzoyl-3'-N-methoxycarbonyl-taxol]
effect on polymerisation of tubulin (tubulin): inhibits the polymerisation
stabilisation of microtubules (effect on depolymerisation) (tubulin): stabilises the microtubules that have formed distinctly better than taxol
inhibiting (anti-proliferative) activity compared with taxol, in words [1]: activity similar to that of taxol

pIC50 [1, 2]: 9.10
SMILES: COC(=O)N[C@@H](c1ccncc1)[C@@H](O)C(=O)O[C@H]1C[C@@]2(O)[C@@H](OC(=O)c3ccccc3)[C@@H]3[C@]4(OC(C)=O)CO[C@@H]4C[C@@H](O)[C@@]3(C)C(=O)[C@H](OC(C)=O)C(=C1C)C2(C)C [Compound 2, 3'-desphenyl-3'-(4-pyridyl)-3'-N-debenzoyl-3'-N-methoxycarbonyl-7-epi-taxol]
effect on polymerisation of tubulin (tubulin): much more pronounced acceleration of the polymerisation of tubulin
stabilisation of microtubules (effect on depolymerisation) (tubulin): stabilises the microtubules that have formed very much better than taxol
inhibiting (anti-proliferative) activity compared with taxol, in words [1]: significantly improved inhibiting activity compared with taxol
